The test system of series [1] is Serum. As to the kind of experiment: Drug level in healthy human serum treated with [14C]indacaterol at 800 ug, po as single dose at 2 hrs by HPLC analysis relative to total radioactivity. The following applies: in vivo. Type of series: ADME, organism-based.
A short description of series [2]: Drug recovery in healthy human feces treated with [14C]indacaterol at 800 ug, po as single dose after 168 hrs postdose by liquid scintillation counting. Type of series: ADME, organism-based. To be noted: in vivo.
For series [3], the system named is Serum. As to the kind of experiment: AUC (0 to 24 hrs) in healthy human serum treated with [14C]indacaterol at 800 ug, po as single dose by HPLC analysis relative to total radioactivity. In kind it is ADME, organism-based. To be noted: in vivo.
Series [4] in a line: Drug recovery in healthy human urine treated with [14C]indacaterol at 800 ug, po as single dose after 168 hrs postdose by liquid scintillation counting. Type of series: ADME, organism-based. The following applies: in vivo.
In series [5] the test system is Serum. As to the kind of experiment: Drug level in healthy human serum treated with [14C]indacaterol at 800 ug, po as single dose at 2 hrs by HPLC analysis. In kind it is ADME, organism-based. To be noted: in vivo.
In series [6] the test system is Serum. As to the kind of experiment: AUC (0 to 24 hrs) in healthy human serum treated with [14C]indacaterol at 800 ug, po as single dose by HPLC analysis. In kind it is ADME, organism-based. The arrangement: time < 24 hr, dose 800 ug, route oral. To be noted: in vivo.
In series [7] the test system is Serum. The experiment in a line: Drug metabolism in healthy human serum treated with [14C]indacaterol at 800 ug, po as single dose by HPLC analysis. The following applies: in vivo. Type of series: ADME, organism-based.
Series [8] in a line: Drug recovery in healthy human feces at 800 ug, po as single dose measured after 168 hrs postdose by liquid scintillation counting. Type of series: ADME, organism-based. To be noted: in vivo.
The subject of series [9] is Serum. The experiment in a line: Drug metabolism in healthy human serum assessed as 2-(5,6-diethyl-2,3-dihydro-1H-inden-2-ylamino)acetic acid formation at 800 ug, po as single dose by HPLC analysis. Type of series: ADME, organism-based. To be noted: in vivo.
The test system of series [10] is Serum. The experiment in a line: Drug level in healthy human serum at 800 ug, po as single dose at 2 hrs by HPLC analysis. Type of series: ADME, organism-based. The following applies: in vivo.
The test system of series [11] is Homo sapiens. The experiment in a line: AUC (0 to last) in healthy human assessed as total radioactivity at 800 ug, po as single dose by LC-MS/MS analysis. Type of series: ADME, organism-based, Plasma. The following applies: in vivo.
For series [12], the system named is Homo sapiens. The experiment in a line: Cmax in healthy human assessed as total radioactivity at 800 ug, po as single dose by LC-MS/MS analysis. Type of series: ADME, organism-based. Set-up: dose 800 ug, route oral. The following applies: in vivo.
The nature of series [13]: Drug recovery in healthy human urine assessed as total radioactivity at 800 ug, po as single dose after 168 hrs postdose by liquid scintillation counting. In kind it is ADME, organism-based. To be noted: in vivo.
Series [14] is described as follows: Drug recovery in healthy human feces assessed as total radioactivity at 800 ug, po as single dose after 168 hrs postdose by liquid scintillation counting. In kind it is ADME, organism-based. The following applies: in vivo.
The subject of series [15] is Serum. The experiment in a line: Drug metabolism in healthy human serum assessed as (2S,3S,4S,5R,6R)-6-((5,6-diethyl-2,3-dihydro-1H-inden-2-yl)((S)-2-hydroxy-2-(8-hydroxy-2-oxo-1,2-dihydroquinolin-5-yl)ethyl)amino)-3,4,5-trihydroxytetrahydro-2H-pyran-2-carboxylic acid formation at 800 ug, po as single dose by HPLC analysis. Type of series: ADME, organism-based. The following applies: in vivo.

In series [16] the test system is Serum. The experiment in a line: AUC (0 to 24 hrs) in healthy human serum at 800 ug, po as single dose by HPLC analysis. Type of series: ADME, organism-based. The arrangement: time < 24 hr, dose 800 ug, route oral. To be noted: in vivo.
In series [17] the test system is Serum. The experiment in a line: Drug metabolism in healthy human serum assessed as 5,6-diethyl-2,3-dihydro-1H-inden-2-amine formation at 800 ug, po as single dose by HPLC analysis. In kind it is ADME, organism-based. To be noted: in vivo.
The subject of series [18] is Homo sapiens. The experiment in a line: Tmax in healthy human assessed as total radioactivity at 800 ug, po as single dose by LC-MS/MS analysis. In kind it is ADME, organism-based. To be noted: in vivo.
In series [19] the test system is Serum. As to the kind of experiment: Drug level in healthy human serum at 800 ug, po as single dose at 2 hrs by HPLC analysis relative to total radioactivity. Type of series: ADME, organism-based. To be noted: in vivo.
In series [20] the test system is Serum. The experiment in a line: AUC (0 to 24 hrs) in healthy human serum at 800 ug, po as single dose by HPLC analysis relative to total radioactivity. Type of series: ADME, organism-based. The following applies: in vivo.
Series [21] in a line: Drug recovery in healthy human feces at 800 ug, po as single dose after 168 hrs postdose by liquid scintillation counting. Type of series: ADME, organism-based. The following applies: in vivo.
Series [22] in a line: Tmax in healthy human at 800 ug, po as single dose by LC-MS/MS analysis. In kind it is ADME, organism-based. The following applies: in vivo.
Series [23] is described as follows: Drug recovery in healthy human urine at 800 ug, po as single dose after 168 hrs postdose by liquid scintillation counting. In kind it is ADME, organism-based. The following applies: in vivo.
The nature of series [24]: Cmax in healthy human at 800 ug, po as single dose by LC-MS/MS analysis. In kind it is ADME, organism-based. To be noted: in vivo. Set-up: dose 800 ug, route oral.
Series [25] can be described thus: AUC (0 to 12 hrs) in healthy human at 800 ug, po as single dose by LC-MS/MS analysis. The following applies: plasma. Type of series: ADME, organism-based. Set-up: dose 800 ug, time < 12 hr, route oral.

Structures are written as SMILES.

`CCc1cc2c(cc1CC)CC(NC[C@H](O)c1ccc(O[C@@H]3O[C@H](C(=O)O)[C@@H](O)[C@H](O)[C@H]3O)c3[nH]c(=O)ccc13)C2`: the Drug uptake in the series on Serum [1] is given as 7.42%; in the series with Serum [3], 4.22%; in the series on Serum [5], 0.1 ngequiv/ml. The values for the Drug recovery in [2] and in series [4] were 0% and 0.53%, respectively. For the same molecule, the AUC with Serum [6] was found to be 0.6 ng.Eq.hr/ml.

With `CCc1cc2c(cc1CC)CC(N(C[C@H](O)c1ccc(O)c3[nH]c(=O)ccc13)[C@@H]1O[C@H](C(=O)O)[C@@H](O)[C@H](O)[C@H]1O)C2`, the Drug metabolism entry with Serum [7] is “metabolite_detected”.

`CCc1cc2c(cc1CC)CC(NCC(=O)O)C2`: the results for the Drug recovery in [2] and in series [4] were 0% and 0.97%, respectively. In the series on Serum [7], the Drug metabolism result is “metabolite_detected”.

Take `CCc1cc2c(cc1CC)CC(N)C2`: the Drug recovery in series [2] is recorded as 1.7%; in [4], 0%; in [8], “<= 6%”. For the same molecule, in the series with Serum [7], the Drug metabolism result is “metabolite_detected”.

`CCc1cc2c(cc1[14CH2]C)CC(NC[C@H](O)c1ccc(O)c3[nH]c(=O)ccc13)C2` (stereo partly drawn): the Drug metabolism entry with Serum [9], in the series on Serum [15] and in the series with Serum [17] was “metabolite_detected” each time. For the same molecule, the Drug uptake in the series on Serum [10] turned out to be 0.42 ngequiv/ml; in the series on Serum [19], 31.4%; in the series on Serum [20], 32.5%. In the series on Homo sapiens [11], the AUClast was found to be 27.2 ng.Eq.hr/ml. The Cmax in the series on Homo sapiens [12] was 1.4 ng.Eq/ml. Further, the Drug recovery in series [13] is recorded as 9.7%; in [14] it was 85.3%. This molecule returned an AUC with Serum [16] of 4.58 ng.Eq.hr/ml. Further, the Tmax (commonly the time at which the peak concentration occurs) in the series with Homo sapiens [18] stood at 2.5 h.

On to `CCc1cc2c(cc1C(C)O)CC(NC[C@H](O)c1ccc(O[C@@H]3O[C@H](C(=O)O)[C@@H](O)[C@H](O)[C@H]3O)c3[nH]c(=O)ccc13)C2` (stereo partly drawn), for which the Drug uptake in the series on Serum [1] stood at 9.31%; with Serum [3], 5.78%; with Serum [5], 0.12 ngequiv/ml. In addition, the Drug recovery was 0% in series [2] and 0.83% in series [4]. Further, in the series with Serum [6], the AUC came out at 0.82 ng.Eq.hr/ml.

For the molecule `CCc1cc2c(cc1C(C)O)CC(NC[C@H](O)c1ccc(O)c3[nH]c(=O)ccc13)C2` (stereo in doubt; P26.9), the results for the Drug uptake with Serum [1], with Serum [3] and with Serum [5] were 13.2%, 12.4% and 0.18 ngequiv/ml, respectively. Besides, the Drug recovery in series [2] was found to be 17.44%; in series [4], 1.24%; in series [8], 17%. Moreover, the AUC with Serum [6] is recorded as 1.8 ng.Eq.hr/ml.

Regarding `CCc1cc2c(cc1C(C)O)CC(NC[C@H](O)c1ccc(O)c3[nH]c(=O)ccc13)C2` (stereo in doubt; P30.3), the results for the Drug recovery in series [2], in series [4] and in series [8] were 6.33%, 0.31% and “<= 6%”, respectively.

As to `CCc1cc2c(cc1CC)CC(NC[C@H](O)c1ccc(O)c3[nH]c(=O)ccc13)C2.O=C(O)/C=C\C(=O)O` [INDACATEROL MALEATE], the Drug recovery in series [21] was found to be 54.42%; in series [23] it was 0.34%; in [8] it was 54%. Moreover, the Tmax in series [22] came out at 1.75 h. The molecule also yielded a Cmax in series [24] of 0.47 ng/mL. Besides, the AUC(0-t) (in general, exposure summed from dosing to a finite time, without extrapolation to infinity) at 12 h in series [25] stood at 1.81 ng·h/mL.

Values taken from ChEMBL document CHEMBL3525982, “Metabolism and pharmacokinetics of indacaterol in humans” (Drug Metab Dispos, 2012).
